Source: patent US20220162192A1 (ESCAPE Bio, Inc., priority 2019, published 2022)

Tests used:
[1] = molecular target: T1, Recombinant G2019S-LRRK2 protein (Homo sapiens, UniProt Q5S007, G2019S); experiment: LanthaScreen Kinase Activity Assay (TR-FRET), G2019S-LRRK2; format: biochemical; details: class symbols; 25 μM ATP, 400 nM LRRKtide, 2.9 nM kinase, 60 min at room temperature
T1 construct: purchased Life Technologies PV4881
How it was run: (§1)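 Recombinant wild-type or G2019S LRRK2 (2.9 nM final) phosphorylated fluorescein-LRRKtide (400 nM) with 25 μM ATP in 50 mM Tris pH 8.5, 5 mM MgCl2, 1 mM EGTA, 0.01% Brij-35, 2 mM DTT for 60 min at RT. After EDTA stop, Tb-anti-pERM TR-FRET (520/495 nm ratio) was read. IC50 values came from 11-point, 3-fold compound dilutions.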

[2] = molecular target: T2, Recombinant wild type LRRK2 protein (Homo sapiens, UniProt Q5S007); experiment: LanthaScreen Kinase Activity Assay (TR-FRET), wild type LRRK2; format: biochemical; details: class symbols; 25 μM ATP, 400 nM LRRKtide, 2.9 nM kinase, 60 min at room temperature; read-out: LRRK2 WT IC50
T2 construct: purchased Life Technologies PR8604B
How it was run: as §1

T2 sequence (Q5S007 whole entry): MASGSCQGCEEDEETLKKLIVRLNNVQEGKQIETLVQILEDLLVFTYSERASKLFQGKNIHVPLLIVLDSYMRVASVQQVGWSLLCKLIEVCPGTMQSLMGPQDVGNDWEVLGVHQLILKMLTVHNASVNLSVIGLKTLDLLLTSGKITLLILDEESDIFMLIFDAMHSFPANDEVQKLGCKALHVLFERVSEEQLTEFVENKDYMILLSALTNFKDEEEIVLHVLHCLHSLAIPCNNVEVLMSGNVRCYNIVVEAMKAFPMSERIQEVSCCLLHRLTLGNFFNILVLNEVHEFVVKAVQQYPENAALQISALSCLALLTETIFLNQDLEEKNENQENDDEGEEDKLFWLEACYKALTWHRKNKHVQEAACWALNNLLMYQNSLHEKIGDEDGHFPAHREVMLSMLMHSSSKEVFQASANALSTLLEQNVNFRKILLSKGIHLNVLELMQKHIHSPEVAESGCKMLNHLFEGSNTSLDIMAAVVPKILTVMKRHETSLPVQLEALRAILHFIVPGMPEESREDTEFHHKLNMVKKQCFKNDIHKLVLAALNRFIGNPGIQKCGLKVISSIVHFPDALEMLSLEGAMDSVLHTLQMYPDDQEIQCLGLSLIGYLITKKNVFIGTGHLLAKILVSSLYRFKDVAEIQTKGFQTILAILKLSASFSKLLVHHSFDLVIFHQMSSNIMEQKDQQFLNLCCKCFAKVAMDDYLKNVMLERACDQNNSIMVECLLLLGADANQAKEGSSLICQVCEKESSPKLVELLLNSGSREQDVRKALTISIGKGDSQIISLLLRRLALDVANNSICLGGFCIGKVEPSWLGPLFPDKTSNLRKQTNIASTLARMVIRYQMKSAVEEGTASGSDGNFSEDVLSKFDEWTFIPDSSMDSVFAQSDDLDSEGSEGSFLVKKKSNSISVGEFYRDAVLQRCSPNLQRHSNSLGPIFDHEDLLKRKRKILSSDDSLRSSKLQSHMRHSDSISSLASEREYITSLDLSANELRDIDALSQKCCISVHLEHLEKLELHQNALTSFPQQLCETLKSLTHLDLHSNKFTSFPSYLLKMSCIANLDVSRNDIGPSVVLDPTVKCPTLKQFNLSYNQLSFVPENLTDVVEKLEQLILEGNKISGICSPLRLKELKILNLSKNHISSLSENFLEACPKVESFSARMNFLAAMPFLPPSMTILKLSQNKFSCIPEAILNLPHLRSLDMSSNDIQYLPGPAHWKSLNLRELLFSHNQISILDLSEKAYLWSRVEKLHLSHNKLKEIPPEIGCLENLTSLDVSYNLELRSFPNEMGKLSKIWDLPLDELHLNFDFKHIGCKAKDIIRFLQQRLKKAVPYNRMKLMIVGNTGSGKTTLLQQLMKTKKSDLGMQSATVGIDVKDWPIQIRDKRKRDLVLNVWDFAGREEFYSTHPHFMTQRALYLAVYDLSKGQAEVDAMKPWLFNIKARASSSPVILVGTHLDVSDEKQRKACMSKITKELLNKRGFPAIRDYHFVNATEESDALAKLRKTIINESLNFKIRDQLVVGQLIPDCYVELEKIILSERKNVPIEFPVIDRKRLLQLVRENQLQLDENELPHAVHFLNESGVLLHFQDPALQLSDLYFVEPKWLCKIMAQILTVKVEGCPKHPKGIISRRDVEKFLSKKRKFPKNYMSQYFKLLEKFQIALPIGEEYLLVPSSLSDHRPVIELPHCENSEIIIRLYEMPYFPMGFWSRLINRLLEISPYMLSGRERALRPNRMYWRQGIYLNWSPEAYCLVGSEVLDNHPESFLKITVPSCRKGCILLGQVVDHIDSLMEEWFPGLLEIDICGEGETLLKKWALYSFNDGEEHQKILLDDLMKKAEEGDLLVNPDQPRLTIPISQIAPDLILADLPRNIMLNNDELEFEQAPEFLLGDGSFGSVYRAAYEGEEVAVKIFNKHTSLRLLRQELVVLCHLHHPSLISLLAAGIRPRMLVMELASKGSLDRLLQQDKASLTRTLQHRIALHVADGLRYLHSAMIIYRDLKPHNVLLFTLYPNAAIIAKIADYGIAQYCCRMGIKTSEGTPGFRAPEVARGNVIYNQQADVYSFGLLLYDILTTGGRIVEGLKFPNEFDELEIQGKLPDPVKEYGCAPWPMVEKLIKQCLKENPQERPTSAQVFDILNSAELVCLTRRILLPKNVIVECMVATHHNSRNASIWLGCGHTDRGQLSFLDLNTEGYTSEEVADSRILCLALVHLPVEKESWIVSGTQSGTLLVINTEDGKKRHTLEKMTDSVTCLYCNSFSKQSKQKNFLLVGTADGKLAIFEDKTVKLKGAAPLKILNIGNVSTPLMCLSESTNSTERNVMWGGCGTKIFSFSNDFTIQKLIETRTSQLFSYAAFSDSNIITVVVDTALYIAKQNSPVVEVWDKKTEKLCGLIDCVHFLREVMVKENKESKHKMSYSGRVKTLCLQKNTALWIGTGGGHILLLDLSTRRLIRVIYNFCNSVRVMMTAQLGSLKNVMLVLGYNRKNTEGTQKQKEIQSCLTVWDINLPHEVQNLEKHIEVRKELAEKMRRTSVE
T1 sequence (Q5S007 whole entry G2019S): as the sequence (Q5S007 whole entry) above, with G2019S counted along it

| SMILES | IC50 [1] [µM] | IC50 [2] [µM] |
| --- | --- | --- |
| Cc1cc(C(=O)Nc2ccc3[nH]nc(-c4ccncc4)c3c2)cc2nn[nH]c12 [Example 13, 7-Methyl-N-(3-(pyridin-4-yl)-1H-indazol-5-yl)-1H-benzo[d][1,2,3]triazole-5-carboxamide] | 0.1 to 1 | 0.1 to 1 |
| O=C(Nc1ccc2[nH]nc(-c3ccoc3)c2c1)c1ccc2nccn2c1 [Example 119, N-(3-(Furan-3-yl)-1H-indazol-5-yl)imidazo[1,2-a]pyridine-6-carboxamide] | ≤ 0.1 | 0.1 to 1 |
| Cc1cccc(-c2n[nH]c3ccc(NC(=O)c4c(C)cc5cnnn5c4C)cc23)c1C [Example 47, N-(3-(2,3-Dimethylphenyl)-1H-indazol-5-yl)-5,7-dimethyl-[1,2,3]triazolo[1,5-a]pyridine-6-carboxamide] | 0.1 to 1 | 1 to 10 |
| Cn1ncc2c(F)c(C(=O)Nc3ccc4[nH]nc(N5CCC5)c4c3)c(F)cc21 [Example 139, N-(3-(Azetidin-1-yl)-1H-indazol-5-yl)-4,6-difluoro-1-methyl-1H-indazole-5-carboxamide] | 0.1 to 1 | 1 to 10 |
| Cc1cn2nc(C(=O)Nc3ccc4[nH]nc(-c5ccoc5)c4c3)cc2c(C)n1 [Example 163, N-(3-(Furan-3-yl)-1H-indazol-5-yl)-4,6-dimethylpyrazolo[1,5-a]pyrazine-2-carboxamide] | ≤ 0.1 | ≤ 0.1 |
| Cc1cc(-c2n[nH]c3ccc(NC(=O)c4c(F)cc5c(cnn5C)c4F)cc23)ccn1 [Example 37, 4,6-Difluoro-1-methyl-N-(3-(2-methylpyridin-4-yl)-1H-indazol-5-yl)-1H-indazole-5-carboxamide] | ≤ 0.1 | ≤ 0.1 |
| O=C(Nc1ccc2[nH]nc(-c3ccoc3)c2c1)c1cn2cccnc2n1 [Example 128, N-(3-(Furan-3-yl)-1H-indazol-5-yl)imidazo[1,2-a]pyrimidine-2-carboxamide] | 0.1 to 1 | 0.1 to 1 |
| Cc1cn2cncc2cc1C(=O)Nc1ccc2[nH]nc(-c3ccccc3)c2c1 [Example 52, 6-Methyl-N-(3-phenyl-1H-indazol-5-yl)imidazo[1,5-a]pyridine-7-carboxamide] | ≤ 0.1 | ≤ 0.1 |
| COc1ccccc1-c1n[nH]c2ccc(NC(=O)c3c(C)cc4cnnn4c3C)cc12 [Example 46, N-(3-(2-Methoxyphenyl)-1H-indazol-5-yl)-5,7-dimethyl-[1,2,3]triazolo[1,5-a]pyridine-6-carboxamide] | ≤ 0.1 | 0.1 to 1 |

The next lines start with the values.

| IC50 [1] [µM] | IC50 [2] [µM] | SMILES |
| --- | --- | --- |
| ≤ 0.1 | ≤ 0.1 | Cc1cc2[nH]ncc2cc1C(=O)Nc1ccc2[nH]nc(-c3ccccc3)c2c1 [Example 21, 6-Methyl-N-(3-phenyl-1H-indazol-5-yl)-1H-indazole-5-carboxamide] |
| ≤ 0.1 | ≤ 0.1 | O=C(Nc1ccc2[nH]nc(-c3ccoc3)c2c1)c1ccc2snnc2c1 [Example 121, N-(3-(Furan-3-yl)-1H-indazol-5-yl)benzo[d][1,2,3]thiadiazole-5-carboxamide] |
| ≤ 0.1 | 0.1 to 1 | O=C(Nc1ccc2[nH]nc(-c3ccoc3)c2c1)c1ccn2nccc2n1 [Example 127, N-(3-(Furan-3-yl)-1H-indazol-5-yl)pyrazolo[1,5-a]pyrimidine-5-carboxamide] |
| ≤ 0.1 | ≤ 0.1 | O=C(Nc1ccc2[nH]nc(-c3ccoc3)c2c1)c1ccc2cnsc2c1 [Example 156, N-(3-(Furan-3-yl)-1H-indazol-5-yl)benzo[d]isothiazole-6-carboxamide] |
| ≤ 0.1 | 0.1 to 1 | O=C(Nc1ccc2[nH]nc(-c3ccoc3)c2c1)c1ccc2ncsc2c1 [Example 123, N-(3-(Furan-3-yl)-1H-indazol-5-yl)benzo[d]thiazole-6-carboxamide] |
